Assay results reported in PMC12598616, “Design and optimization of caspase-1-responsive fluorescent probes for pyroptosis imaging and anti-pyroptosis drug screening” (Chemical Science, 2025).

System: caspase-8
Assay: Selectivity of probes: caspase-8
Type: biochemical, human
Details: caspase-8 1 μg/mL, 37 °C, 2 h, λex 510 nm, λem 585 nm
Source text: The resin used for SPPS was purchased from GL Biochem (Shanghai, China). Lipopolysaccharide (LPS, L2630), Nigericin and ATP (11140965001) were purchased from Merck (Shanghai, China) and Invitrogen (Shanghai, China), respectively. Cell culture plates were sourced from Wuxi NEST Biotechnology. Recombinant human caspase-1, caspase-3, caspase-4, and caspase-8 were obtained from Abcam and MCE (Shanghai, China). Anti-cleaved caspase-1 antibody, anti-GAPDH antibody, and goat anti-Rabbit/anti-mouse lgG/HRP were purchased from CST (USA) and Beyotime […]
(Shanghai, China). […]
Medical College (ethical approval number ZJCLA-IACUC-20011003).
(also on this page, place not known: Wang,*f, Wang*abg Supplementary Information (SI) for Chemical Science. This journal is © The Royal Society of Chemistry 2025)
(1 picture or pasted object on this page, not shown here) […]
mixture was stirred for 3 h. […]
To investigate the sensitivity of the probes for caspase-1, varying concentration of caspase-1 (0, 0.2, 0.4, 0.6, 0.8, 1.0, 1.25, 1.5, 1.75, 2, 2.5, 3 U/mL) were incubated with FPy1 (5 μM), YPy1 (5 μM) and WPy1 (5 μM) respectively in caspase-1 assay buffer (50 mM HEPES, 50 mM NaCl, 0.1 % chaps, 5 % glycerol, 10 mM DTT, 10 mM EDTA) at 37 °C for 2 hours. Fluorescence spectra were recorded using Hitachi F-2700 spectrophotometer with an excitation at 510 nm (Photomultiplier voltage 700 V; Slit widths ex: 10 nm and em =5.0 nm). The fluorescence intensity of FPy1, YPy1 and WPy1 at 585 nm were plotted against the concentration of caspase-1, and a linear regression fitted from the corresponding concentration of caspase-1, and linear regression was applied to determine the slope k. The limit of detection (LoD) was calculated from 3σ/k, in which σ represents the standard deviation of 15 blank measurements. […]
The fluorescence intensity at 585 nm was measured on a Tecan Infinite M1000 Multi-function microplate reader (λex = 510 nm) at 37 °C every 2 minutes. The K M value of probes was determined from the Lineweaver-Burk plot. […]

| Substance | fluorescence response to caspase-8 |
| --- | --- |
| –FLTDG– [FPy1, RhoB donor, hNR quencher] | almost no response |
| –YVADG– [YPy1, caspase-1-responsive FRET probe with recognition peptide –YVADG–; RhoB donor, hNR quencher] | almost no response |
